Assay results as given in ChEMBL document CHEMBL1201862, “PubChem BioAssay data set” (2004).
Where “and” joins values, the source holds several entries; their conditions need not be identical. Equal values may be shown once.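 Five concentrations, 48 hours, 96-well plates. GI50 marks 50% less growth.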 Calls of active or inactive are those of the source. Cut-off read from the data, not from the text of the source: active = GI50 up to about 1.1 µM and inactive = higher.

Key:
Assay in all cases: growth of human tumour cells (NCI), 48 h
UACC-62 = system: UACC-62
NCI-H23 = system: NCI-H23
HOP-92 = system: HOP-92
SF-295 = system: SF-295
A549 = system: A549
MDA-MB-435 = system: MDA-MB-435
CAKI-1 = system: CAKI-1
HCT-116 = system: HCT-116
TK-10 = system: TK-10
CCRF-CEM = system: CCRF-CEM
SK-MEL-5 = system: SK-MEL-5
T47D = system: T47D
MOLT-4 = system: MOLT-4
IGROV-1 = system: IGROV-1
SNB-75 = system: SNB-75
NCI-H460 = system: NCI-H460
NCI/ADR-RES = system: NCI/ADR-RES
U-251 = system: U-251
OVCAR-4 = system: OVCAR-4
LOX IMVI = system: LOX IMVI

SMILES | GI50 (UACC-62) | GI50 (NCI-H23) | GI50 (HOP-92) | GI50 (SF-295) | GI50 (A549) | GI50 (MDA-MB-435) | GI50 (CAKI-1) | GI50 (HCT-116) | GI50 (TK-10) | GI50 (CCRF-CEM) | GI50 (SK-MEL-5) | GI50 (T47D) | GI50 (MOLT-4) | GI50 (IGROV-1) | GI50 (SNB-75) | GI50 (NCI-H460) | GI50 (NCI/ADR-RES) | GI50 (U-251) | GI50 (OVCAR-4) | GI50 (LOX IMVI)
CS(=O)(=O)c1ccc(/N=C/C=C/Nc2ccc(S(C)(=O)=O)cc2)cc1 | > 100 µM (inactive) | > 100 µM (inactive) | > 100 µM (inactive) | > 100 µM (inactive) | > 100 µM (inactive) | > 100 µM (inactive) | > 100 µM (inactive) | > 100 µM (inactive) | > 100 µM (inactive) | > 100 µM (inactive) | > 100 µM (inactive) | > 100 µM (inactive) | > 100 µM (inactive) | > 100 µM (inactive) | > 100 µM (inactive) | > 100 µM (inactive) | > 100 µM (inactive) | > 100 µM (inactive) | > 100 µM (inactive) | 
CCOC(=O)C1(C/C=C/CBr)Cc2ccccc2C1=O (stereo not given) | 2.14 µM (inactive) | 2.02 µM (inactive) |  | 8.57 µM (inactive) | 10.5 µM (inactive) | 1.72 µM (inactive) | 2.42 µM (inactive) | 3.71 µM (inactive) | 2.77 µM (inactive) | 0.796 µM (active) | 2.67 µM (inactive) | 1.98 µM (inactive) | 2.49 µM (inactive) | 2.7 µM (inactive) | 5.86 µM (inactive) | 1.75 µM (inactive) | 1.98 µM (inactive) | 3.58 µM (inactive) | 2.03 µM (inactive) | 1.6 µM (inactive)
CCC(=O)NC(Nc1cc(C)on1)(C(F)(F)F)C(F)(F)F | > 100 µM (inactive) | > 100 µM (inactive) | > 100 µM (inactive) |  | > 100 µM (inactive) | > 100 µM (inactive) | > 100 µM (inactive) | > 100 µM (inactive) | > 100 µM (inactive) | > 100 µM (inactive) | > 100 µM (inactive) | > 100 µM (inactive) | > 100 µM (inactive) | > 100 µM (inactive) | > 100 µM (inactive) | > 100 µM (inactive) | > 100 µM (inactive) | > 100 µM (inactive) |  | > 100 µM (inactive)
c1ccc2nc3c(nc2c1)sc1nc2ccccc2n13 | > 100 µM (inactive) | > 100 µM (inactive) | 57 µM (inactive) | 45 µM (inactive) | > 100 µM (inactive) | > 100 µM (inactive) | > 100 µM (inactive) | > 100 µM (inactive) | > 100 µM (inactive) | > 100 µM (inactive) | > 100 µM (inactive) | 8 µM (inactive) | > 100 µM (inactive) | > 100 µM (inactive) | > 100 µM (inactive) | > 100 µM (inactive) | > 100 µM (inactive) | > 100 µM (inactive) |  | > 100 µM (inactive)
Cc1c2c(n(CCc3ccccc3)c1C)N(C)N=C(C#N)S2(=O)=O | > 100 µM (inactive) | > 100 µM (inactive) |  | > 100 µM (inactive) | > 100 µM (inactive) | > 100 µM (inactive) | > 100 µM (inactive) | > 100 µM (inactive) | > 100 µM (inactive) |  | > 100 µM (inactive) | > 100 µM (inactive) | > 100 µM (inactive) | > 100 µM (inactive) | > 100 µM (inactive) | > 100 µM (inactive) | > 100 µM (inactive) | > 100 µM (inactive) | > 100 µM (inactive) | 
CCOC(=O)C1(Cc2ccccc2)Cc2cc3c(cc2C1=O)CCC3 (stereo not given) | > 100 µM (inactive) | > 100 µM (inactive) | > 100 µM (inactive) | > 100 µM (inactive) | > 100 µM (inactive) | > 100 µM (inactive) |  | > 100 µM (inactive) | > 100 µM (inactive) | > 100 µM (inactive) | > 100 µM (inactive) | > 100 µM (inactive) | > 100 µM (inactive) | > 100 µM (inactive) | > 100 µM (inactive) | > 100 µM (inactive) | > 100 µM (inactive) | > 100 µM (inactive) | > 100 µM (inactive) | > 100 µM (inactive)
Cn1c(=O)c2c(nc(N/N=C3/SCC(=O)N3Cc3ccccc3)n2C)n(C)c1=O | 64.4 µM (inactive) | > 100 µM (inactive) | 5.9 µM (inactive) | > 100 µM (inactive) | 89.5 µM (inactive) | > 100 µM (inactive) | > 100 µM (inactive) | > 100 µM (inactive) | > 100 µM (inactive) | 47.9 µM (inactive) | 34 µM (inactive) | 61.4 µM (inactive) |  | 34.3 µM (inactive) |  | 38 µM (inactive) | > 100 µM (inactive) | 54.6 µM (inactive) | 26.4 µM (inactive) | 
Cc1ccccc1N(C)S(=O)(=O)c1ccccc1[N+](=O)[O-] | 38.8 µM (inactive) | 31.5 µM (inactive) |  | 42.5 µM (inactive) | 45.9 µM (inactive) | 33.4 µM (inactive) | 59.3 µM (inactive) | 41.1 µM (inactive) | > 100 µM (inactive) | 35.8 µM (inactive) | 15.4 µM (inactive) | 58.1 µM (inactive) | 27.9 µM (inactive) | > 100 µM (inactive) | 47.6 µM (inactive) | 36.1 µM (inactive) | 25.1 µM (inactive) | 36.3 µM (inactive) | 67.6 µM (inactive) | 55.3 µM (inactive)
COC(=O)C1C2CCCN2OC1(C)CO (stereo not given) | > 100 µM (inactive) | > 100 µM (inactive) |  | > 100 µM (inactive) | > 100 µM (inactive) | > 100 µM (inactive) | > 100 µM (inactive) | > 100 µM (inactive) | > 100 µM (inactive) | > 100 µM (inactive) | > 100 µM (inactive) | > 100 µM (inactive) | > 100 µM (inactive) | > 100 µM (inactive) | > 100 µM (inactive) | > 100 µM (inactive) | > 100 µM (inactive) | > 100 µM (inactive) | > 100 µM (inactive) | > 100 µM (inactive)
C[N+]1([O-])CCC(O)(C2CC2)CC1 (stereo not given) | > 100 µM (inactive) | > 100 µM (inactive) |  | > 100 µM (inactive) | > 100 µM (inactive) | > 100 µM (inactive) | > 100 µM (inactive) | > 100 µM (inactive) | > 100 µM (inactive) | > 100 µM (inactive) | > 100 µM (inactive) | > 100 µM (inactive) | > 100 µM (inactive) | > 100 µM (inactive) | > 100 µM (inactive) |  | > 100 µM (inactive) | > 100 µM (inactive) | > 100 µM (inactive) | > 100 µM (inactive)
COC(=O)c1c(O)ccc2[nH]c3c(O)c4ccccc4cc3c12 | 61.4 µM (inactive) | 23 µM (inactive) | 29.6 µM (inactive) | 18.9 µM (inactive) | 32.2 µM (inactive) | 27.9 µM (inactive) | 18.5 µM (inactive) | 16.7 µM (inactive) | 34.2 µM (inactive) | 20.8 µM (inactive) | 24 µM (inactive) | 15.1 µM (inactive) | 37.2 µM (inactive) | 16.7 µM (inactive) |  | 24.1 µM (inactive) | 29.9 µM (inactive) | 36.5 µM (inactive) | 25.5 µM (inactive) | 
COc1ccc(C2Oc3c(OC)cc(CCCO)cc3C2CO)cc1OC (stereo not given) | 54.6 µM (inactive) and 83.9 µM (inactive) |  | 56.5 µM (inactive) | 50.4 µM (inactive) and 70.8 µM (inactive) | 88.1 µM (inactive) and 80 µM (inactive) | 70 µM (inactive) and 93.5 µM (inactive) |  | > 100 µM (inactive) | > 100 µM (inactive) |  |  | 10.9 µM (inactive) and 18.3 µM (inactive) | 42.5 µM (inactive) and 26.9 µM (inactive) | > 100 µM (inactive) | > 100 µM (inactive) and 77.3 µM (inactive) | > 100 µM (inactive) | 69 µM (inactive) | > 100 µM (inactive) | > 100 µM (inactive) | 
CN(CCN1C(=O)c2cccc3cccc(c23)C1=O)CCN1C(=O)c2cccc3cccc(c23)C1=O | 30 µM (inactive) | 16.9 µM (inactive) |  | 12.8 µM (inactive) | 27.6 µM (inactive) | > 100 µM (inactive) | > 100 µM (inactive) | 5.98 µM (inactive) | 14.1 µM (inactive) | 2.18 µM (inactive) | > 100 µM (inactive) | 1.5 µM (inactive) | 7.73 µM (inactive) | 17.4 µM (inactive) | 19.2 µM (inactive) | 16.3 µM (inactive) | 13.5 µM (inactive) | 12.2 µM (inactive) | > 100 µM (inactive) | 58.6 µM (inactive)
CCN(CC)CCCNC(=O)c1cc2cc(NC(=O)c3cc4cc([N+](=O)[O-])ccc4[nH]3)ccc2[nH]1 | 32.8 µM (inactive) | > 100 µM (inactive) | 37.5 µM (inactive) | 44.3 µM (inactive) | > 100 µM (inactive) | 51.1 µM (inactive) | > 100 µM (inactive) | > 100 µM (inactive) | > 100 µM (inactive) |  | > 100 µM (inactive) | > 100 µM (inactive) |  | > 100 µM (inactive) | > 100 µM (inactive) | > 100 µM (inactive) | > 100 µM (inactive) | > 10 µM (inactive) | > 100 µM (inactive) | 
O=C(N/N=C\c1cccc2ccccc12)Nc1cccc2ccccc12 |  | 23.7 µM (inactive) |  |  | 44.1 µM (inactive) | 3.95 µM (inactive) | 25.7 µM (inactive) | 13.9 µM (inactive) | 19.9 µM (inactive) | 18.2 µM (inactive) | 13.1 µM (inactive) | 65.9 µM (inactive) | 4.49 µM (inactive) | 25.9 µM (inactive) | 6.61 µM (inactive) | 5.43 µM (inactive) | > 100 µM (inactive) | 11.4 µM (inactive) | > 10 µM (inactive) | 22.9 µM (inactive)
